Key:
[1] = Antioxidant activity by DPPH method; settings: DPPH radical scavenging, 517 nm; ± SEM
Method: This method opted for evaluation of free radical scavenging activity of DPPH was based on modified procedure described by […] et al.. The tested compounds were prepared in methanolic solution and reacted with methanolic solution of DPPH at 37 °C. The reaction mixture was prepared in 96-well plate by adding 50 μL of sample, 50 μl of methanol and 50 μl of DPPH solution prepared in 0.1 mM methanol. The mechanism of action of DPPH assay was based on the fact that DPPH radical get reduced during its reaction with an antioxidant compound and results in changes of color (from deep violet to light yellow). […] The mixture of methanol (5.0 ml) and tested compounds (0.2 ml) serve as blank. Ascorbic acid served as positive control.

[2] = Hydrogen peroxide scavenging (H2O2) assay; settings: 230 nm, pH 7.4, ± SEM, read-out: IC50 (µM) ± SEM, H2O2 method
Method: The solution of H2O2 (100 mM) was prepared via adding up different concentrations of synthesized derivatives ranging from 5 to 80 μg/ml to H2O2 solution (2 ml), prepared in 20 mM phosphate buffer of pH 7.4. Finally, the absorbance of H2O2 was measured at 230 nm after incubating for 10 min next to a blank reading of phosphate buffer without H2O2. For every measurement, a fresh reading of blank was taken to carry out background correction. For control sample containing H2O2 was scanned for absorbance at 230 nm. Results calculated as percentage of hydrogen peroxide inhibition was estimated by the formula [(Ab–At)/[…]] × 100, where Ab is the absorbance of the control and At is the absorbance of compounds/standard taken as L-ascorbic acid (5–80 μg/ml) are shown in Table 5.

[3] = test system: T1, xanthine oxidase; assay: Enzyme kinetic analysis for XO-inhibitory activity (Michaelis-Menten, Lineweaver-Burk); assay type: biochemical, human
T1 construct: purchased Sigma (Sigma-Aldrich) MAK078
T1 sequence (P47989 whole entry): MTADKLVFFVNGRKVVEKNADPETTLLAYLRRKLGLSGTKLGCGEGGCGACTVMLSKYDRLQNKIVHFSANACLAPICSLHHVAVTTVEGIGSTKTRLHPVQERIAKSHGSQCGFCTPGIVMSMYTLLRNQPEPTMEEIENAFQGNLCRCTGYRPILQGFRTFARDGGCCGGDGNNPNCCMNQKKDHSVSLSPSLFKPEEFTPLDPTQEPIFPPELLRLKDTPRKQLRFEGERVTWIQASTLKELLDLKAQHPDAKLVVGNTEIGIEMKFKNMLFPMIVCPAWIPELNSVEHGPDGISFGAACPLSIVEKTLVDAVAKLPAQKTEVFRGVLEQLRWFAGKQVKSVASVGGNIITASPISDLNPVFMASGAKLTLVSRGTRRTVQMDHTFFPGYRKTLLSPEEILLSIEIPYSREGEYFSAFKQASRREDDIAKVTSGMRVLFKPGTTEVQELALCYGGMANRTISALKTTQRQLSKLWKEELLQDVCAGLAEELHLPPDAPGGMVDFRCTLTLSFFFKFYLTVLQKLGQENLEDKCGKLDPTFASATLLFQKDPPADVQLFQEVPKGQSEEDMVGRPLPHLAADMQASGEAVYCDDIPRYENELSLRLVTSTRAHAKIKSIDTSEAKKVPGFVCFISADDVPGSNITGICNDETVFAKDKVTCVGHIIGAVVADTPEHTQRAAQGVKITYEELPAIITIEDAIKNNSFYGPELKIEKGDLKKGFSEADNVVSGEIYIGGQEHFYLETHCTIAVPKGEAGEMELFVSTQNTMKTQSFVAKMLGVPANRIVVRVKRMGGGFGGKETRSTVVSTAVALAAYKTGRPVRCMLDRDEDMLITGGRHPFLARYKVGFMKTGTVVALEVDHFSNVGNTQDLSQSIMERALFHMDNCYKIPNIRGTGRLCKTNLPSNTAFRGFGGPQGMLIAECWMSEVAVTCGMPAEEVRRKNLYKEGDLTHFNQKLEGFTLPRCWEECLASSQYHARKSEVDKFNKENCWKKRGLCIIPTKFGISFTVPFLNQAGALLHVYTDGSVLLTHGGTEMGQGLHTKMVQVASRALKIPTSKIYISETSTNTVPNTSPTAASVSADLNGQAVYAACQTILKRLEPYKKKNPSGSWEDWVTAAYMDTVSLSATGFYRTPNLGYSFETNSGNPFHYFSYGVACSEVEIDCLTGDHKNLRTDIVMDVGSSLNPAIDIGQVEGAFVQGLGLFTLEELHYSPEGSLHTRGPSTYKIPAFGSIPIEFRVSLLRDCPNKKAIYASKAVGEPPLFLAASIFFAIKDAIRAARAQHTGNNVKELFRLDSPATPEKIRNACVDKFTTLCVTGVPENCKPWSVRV
Method: Firstly Michaelis–Menten curve was plotted for the enzyme activity at different concentrations of RU3a3 against different concentration of substrate (xanthine) Fig. 11.
Then double reciprocal plot (Lineweaver–Burk) analysis was done in the presence (0.25, 0.5, and 1.0 µM) and absence of RU3a3 from in vitro data generated during the oxidation of xanthine in presence of xanthine oxidase (Fig. 12). The x- and y axis intercepts of the Lineweaver–Burk plot were utilized to calculate Km and Vmax values of RU3a3 at different concentrations (Table 4).

| IC50 [1] | IC50 [2] | Vmax of xanthine oxidase ([3]; Conc. of RU3a3 0.25 µM) | Vmax of xanthine oxidase ([3]; Conc. of RU3a3 0.5 µM) | Vmax of xanthine oxidase ([3]; Conc. of RU3a3 1.0 µM) | Manner of xanthine oxidase inhibition ([3]; Lineweaver-Burk plot) | SMILES |
| --- | --- | --- | --- | --- | --- | --- |
| 6.06 ± 0.13 µM | 14.7 ± 0.6 µM |  |  |  |  | COc1cc(OC)c2c(=O)c(OC(=O)c3cccnc3)c(-c3ccc(OC)c(OC)c3)oc2c1 [RU7c1] |
| 8.48 ± 0.25 µM | 4.378 ± 0.01 µM |  |  |  |  | CC1OC(OCC2OC(Oc3c(-c4ccc(O)c(O)c4)oc4cc(O)cc(O)c4c3=Nc3ccc([N+](=O)[O-])cc3)C(O)C(O)C2O)C(O)C(O)C1O (centres unmarked) [RU4b2] |
| 11.688 ± 0.01 µM | 6.56 ± 0.1 µM | 114.4 µmol/min | 108.2 µmol/min | 98.7 µmol/min | competitive manner | CC1OC(OCC2OC(Oc3c(-c4ccc(O)c(O)c4)oc4cc(O)cc(O)c4c3=NNc3ccccc3)C(O)C(O)C2O)C(O)C(O)C1O (centres unmarked) [RU3a3] |
| 8.728 ± 0.02 µM | 4.146 ± 0.01 µM |  |  |  |  | CC1OC(OCC2OC(Oc3c(-c4ccc(O)c(O)c4)oc4cc(O)cc(O)c4c3=NNC(=S)Nc3ccccc3)C(O)C(O)C2O)C(O)C(O)C1O (centres unmarked) [RU3a2] |
| 2.65 ± 0.09 µM | 9.86 ± 0.25 µM |  |  |  |  | CC1OC(OCC2OC(Oc3c(-c4ccc(O)c(O)c4)oc4cc(O)cc(O)c4c3=Nc3ccc([N+](=O)[O-])cc3Cl)C(O)C(O)C2O)C(O)C(O)C1O (centres unmarked) [RU4b1] |
| 7.69 ± 0.42 µM | 17.9 ± 0.41 µM |  |  |  |  | COc1cc(OC)c2c(=O)c(OC(=O)/C=C/c3ccccc3)c(-c3ccc(OC)c(OC)c3)oc2c1 [RU7c3] |
| 14.669 ± 0.01 µM | 12.1 ± 0.2 µM |  |  |  |  | COc1cc(OC)c2c(=O)c(OC(=O)c3ccccc3O)c(-c3ccc(OC)c(OC)c3)oc2c1 [RU7c2] |
| 5.02 ± 0.1 µM | 9.13 ± 0.35 µM |  |  |  |  | CC1OC(OCC2OC(Oc3c(-c4ccc(O)c(O)c4)oc4cc(O)cc(O)c4c3=NNC(N)=S)C(O)C(O)C2O)C(O)C(O)C1O (centres unmarked) [RU3a1] |
